From patent US11248022B2, “Glypican-3 peptide reagents and methods” (THE REGENTS OF THE UNIVERSITY OF MICHIGAN, priority 2017, dated 2022)
“And” between values parts separate entries of the source, which are not always exact repeats. Equal entries are not always repeated. Ends that are not written are not given here.

Experiments:
human HCC = assay: Immunofluorescence on human liver biopsies ex vivo
From the text: Specific peptide binding to human HCC was confirmed on patient biopsies (n=41) ex vivo from University of Michigan Hospital. […] Antibody staining of the same tissue confirmed minimal GPC3 expression, FIG. 15B. Binding by ALL*-Cy5.5 peptide and AF488-labeled anti-GPC3 antibody co-localized on normal liver specimen with Pearson's correlation coefficient of p=0.62, FIG. 15C. Co-stained regions were also imaged at 40×, FIG. 15D and 100× (dashed box in Panel D) magnifications, FIG. 15E.
Quantitative comparison of ALL*-Cy5.5 binding to human HCC with normal liver, adenoma and cirrhosis tissue was summarized in FIG. 15U.

Hep3B cells = assay: Apparent dissociation constant on Hep3B cells by flow cytometry; type: binding, human
Procedure: The apparent dissociation constant (kd) was measured for the optimized GPC3 peptide to Hep3B cells to provide an assessment of peptide binding affinity. The ALL*-Cy5.5 peptide reagent was serially diluted in PBS at concentrations ranging from 0 to 200 nM in 25 nM increments and incubated with Hep3B cells. The mean fluorescence intensities was measured on flow cytometry. The equilibrium dissociation constant kd=1/ka was calculated by performing a least squares fit of the data to the non-linear equation I=(I0+Imaxka[X])/([…]). I0and Imax are the initial and maximum fluorescence intensities, corresponding to no peptide and at saturation, respectively, and [X] represents the concentration of the bound peptide.

GPC3 = target: T1, GPC3 (Homo sapiens, UniProt P51654); assay: siRNA knockdown of GPC3 in Hep3B cells, confocal fluorescence; type: cell-based
T1 construct: endogenous in cells; host or cells: Hep3B human HCC cells (siCL control vs siGPC3 knockdown); also HepG2; SK-Hep1 as GPC3-negative control
Procedure: (§1) FIGS. 6-2A-Q show validation of specific peptide binding to cells in vitro. […] The Hep3B versus SK-Hep1 difference was also larger for antibody than QLE (P=2.3×10^−8, 6.0-fold larger). Intensity was measured with 6 replicates per condition and fitted to an ANOVA model with terms for 9 means to log-transformed data. […] We further validated specific peptide binding to GPC3 using siRNA knockdown. […] Q) Quantified fluorescence intensities. The siCL vs siGPC3 difference was 7.4 times bigger for ALL than the same difference for QLE (P=7.8×10^−5), and the difference for antibody was 8.9 times bigger than for QLE (P=2.5×10^−5), by ANOVA on log-transformed data. Results are an average of 6 images collected independently.
The specificity of lead candidate peptide reagent binding was validated by siRNA knockdown of GPC3 in human HCC cells. The cells were transfected with siRNA to knockdown cell surface expression of GPC3. […] These cells were transfected with non-targeting siRNA (siCL) for use as control. […] FIG. 6-1D,E show ˜4-fold reduction in fluorescence intensity with both the peptide reagent and anti-GPC3 antibody, respectively, for Hep3B cells transfected with siRNA (siGPC3) to knock down GPC3 expression. […] FIG. 6-2M, N, O and P show the same result as original FIG. 6-1A, B, D and E.

[1] = system: GPC3 positive tumor (from Hep3B cells); conditions: mouse, in vivo, iv
Procedure: Mice bearing HCC xenograft tumor (arrowheads) were i.v. injected with 250 μL of 300 μM near NIR GPC3 targeting peptide ALL*-Cy5.5, scrambled control peptide QLE*-Cy5.5 and unlabeled Cy5.5 free dye alone. ALL*-Cy5.5 was also injected in mice bearing GPC3 negative tumor (from SK Hep-1 cells, arrows) as control of EPR effect. Pre-injection imaging confirmed no autofluorescence was present.

Hep3B xenograft = assay: In vivo NIR laparoscopic imaging of HCC xenograft tumors; set-up: species or system mice
Procedure: Human HCC cells Hep3B and SK-Hep1 were cultured in Eagle's Minimum Essential Medium (EMEM) at 37° C. in 5% CO2, and supplemented with 10% fetal bovine serum (FBS) and 1% penicillin/streptomycin. Western blotting was performed to validate expression level of GPC3. Cells were diluted in growth factor reduced (GFR) Matrigel Matrix (Corning), and injected into one flank of female (to avoid male dominance within a cage) nude athymic mice (nu/nu, Jackson Laboratory) at 4 to 6 weeks of age with weight between 20 to 25 grams. ˜5×10^6 cells were implanted per mouse.
A standard surgical laparoscope (#49003 AA, HOPKINS® II Straight Forward Telescope 0°, Karl Storz) that is ˜10 mm in diameter and has a 31 cm length rigid sheath was adapted to collect reflectance and fluorescence concurrently. Nude mice with human HCC xenograft 2 weeks post implantation were tail vein injected with 200 μL 300 μM GPC3 peptide ALL*-Cy5.5. During imaging, the mice were anesthetized with inhaled isoflurane. We first used laparoscope with white light illumination to exam the xenograft. Laparoscopic images were taken two hours post injection in both fluorescence and reflection mode simultaneously with excitation solid state diode laser (660-S, Toptica Photonics) to deliver excitation at λex=660 nm into the fiber optic light guide. Images were collected at 5 frames/sec with a laser power of 1.2 mW. Hoechst 33342 (H1399, Life Technologies) at a dose of 10 mg/kg diluted in 200 μL of PBS was delivered intravenously via a tail vein injection to stain the cell nuclei 30 minutes before sacrificing the mouse. Xenograft tumors were resected and confocal fluorescence images were collected with Cy5.5 and DAPI filters 50 μm beneath the surface using a confocal microscope (Leica SPSX Upright 2-Photon Confocal Microscope). Following imaging, resected xenografts were fixed and formalin embedded for immunohistochemistry and H&E staining as described previously.
Fluorescence images of mouse HCC xenograft taken at 2 hrs post peptide injection were registered with corresponding reflectance images taken simultaneously. The fluorescence intensity of each pixel in the image was divided by intensity of corresponding pixel in the reflectance image in order to account for the difference in distance between each pixel and the laser source. A heat map image was generated from the resulting ratios at each pixel. Image segmentation was performed automatically by custom Matlab (Mathworks) software program using Ostu's Method [Otsu, Automatica, 11(285-296): 23-27 (1975)]. Target to background ratio of each processed image was calculated by dividing the average intensity of pixels inside the segmented tumor and that of those within 30 pixels outside of segmentation outline.

HepG2 human HCC cells = assay: Confocal microscopy of peptide binding to HepG2 cells; type: cell-based
Procedure: as §1
On confocal microscopy, it was shown that ALL*-Cy5.5 binds to the surface (arrows) of cells with different levels of GPC3 expression. […] GPC3 is highly overexpressed in Hep3B cell cytosol and membrane while moderately expressed in HepG2 cells. No GPC3 expression is observed in SK-Hep1 cells. Tubulin serves as loading control for either cytosol or membrane fractions loaded.

[2] = 41 patients, log-transformed data

T1 sequence (P51654 25-554): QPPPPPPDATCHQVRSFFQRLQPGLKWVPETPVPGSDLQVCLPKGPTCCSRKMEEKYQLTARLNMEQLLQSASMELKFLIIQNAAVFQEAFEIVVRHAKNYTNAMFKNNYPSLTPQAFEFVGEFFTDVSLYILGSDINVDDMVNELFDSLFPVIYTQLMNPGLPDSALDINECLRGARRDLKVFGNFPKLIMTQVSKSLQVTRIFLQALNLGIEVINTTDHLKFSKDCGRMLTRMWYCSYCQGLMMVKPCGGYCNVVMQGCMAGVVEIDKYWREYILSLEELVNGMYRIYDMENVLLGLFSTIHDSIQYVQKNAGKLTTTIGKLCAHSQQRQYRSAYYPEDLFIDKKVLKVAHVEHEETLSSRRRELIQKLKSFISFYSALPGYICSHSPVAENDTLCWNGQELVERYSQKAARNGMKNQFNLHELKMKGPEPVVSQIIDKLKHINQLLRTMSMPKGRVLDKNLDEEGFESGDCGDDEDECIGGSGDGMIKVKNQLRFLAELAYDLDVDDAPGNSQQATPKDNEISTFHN

With “ALLANHEELFQT (SEQ ID NO: 1) peptide labeled with Cy5.5 via a GGGSK linker on the C-terminus (ALLANHEELFQTGGGSK-{Cy5.5}) [ALL*-Cy5.5]” the “signal in HCC relative to adenoma” value (human HCC; [2]) was 2.48 fold, the “signal in HCC relative to cirrhosis” value (human HCC; [2]) was 2.05 fold and the “signal in HCC relative to normal” value (human HCC; [2]) was 3.43 fold. The immunofluorescence staining (human HCC; HCC tissue) was “Strong intense staining”, the immunofluorescence staining (human HCC; adenoma tissue) was “Minimal staining” and the immunofluorescence staining (human HCC; cirrhotic liver tissue) was “moderate diffuse staining”. The immunofluorescence staining (human HCC; human normal liver tissue) was “negative staining”, the Kd (Hep3B cells) was 0.071 µM and 0.0713 µM and the “siCL vs siGPC3 difference relative to the same difference for QLE” value (GPC3; ANOVA on log-transformed data) was 7.4 times. The “fluorescence intensity remaining (% of siCL control)” value (GPC3; GPC3 knockdown cells) was 27%, the “binding to cell surface” value (GPC3; Hep3B cells transfected with non-targeting siRNA (siCL)) was “strong binding” and the “reduction in fluorescence intensity” value (GPC3; Hep3B cells transfected with siGPC3 vs siCL) was roughly 4 fold. The fluorescence intensity (GPC3; siCL treated Hep3B control cells) was 54.3±6.0, the fluorescence intensity (GPC3; siGPC3 knockdown Hep3B cells) was 14.7±1.5 and the “time of peak uptake/signal post injection” value [1] was 2 h. For the same sequence, the “staining of cell surface on excised tumor xenograft (confocal)” value (Hep3B xenograft; 40× magnification) was “intense staining”, the “T/B ratio relative to QLE*-Cy5.5” value (Hep3B xenograft; NIR laparoscope, 2 hours) was 2.8 fold and the “target-to-background (T/B) ratio” value (Hep3B xenograft; NIR laparoscope, 2 hours after i.v. injection, n=8) was 8.3±1.3. For the same sequence, the “intensity difference HepG2 versus SK-Hep1 relative to the same difference for QLE*” value (HepG2 human HCC cells; 6 replicates, log-transformed data) was 3.3 fold and the “fluorescence intensity from binding to cell surface” value (HepG2 human HCC cells; HepG2 cells, confocal microscopy) was “strong fluorescence intensity”.
